{"source": "patent US9573899B2", "about": "“USP7 inhibitor compounds and methods of use” (Genentech, Inc., priority 2015, dated 2017)", "assay_type_in_all_cases": "cell-based", "key": {"[1]": {"test_system": "ubiquityl-MDM2 in SJSA-1 osteosarcoma cells", "assay": "Cellular ubiquityl-MDM2 assay (MSD Ub/Total MDM2)", "conditions": "Homo sapiens; SJSA-1 cells, low serum conditions; read-out: increase in ubiquityl-MDM2 (EC50)", "method": "HCT116 colon cancer cells or SJSA-1 osteosarcoma cells were seeded at a density of 150,000 cell per well in 90 ml (RPMI 1640 media, 10% FBS, 1× GlutaMAX™, Gibco) in 96-well black clear bottom, TC-treated (Greiner, Cat#655090), and incubated for 2 hours at 37° C., 5% CO2 in a tissue culture incubator. Compounds were prepared in a serial dilution in DMSO at 200× the final desired concentration in a 96-well polypropylene V-bottom (Greiner, Cat#651261), then diluted 1:20 in RPMI tissue culture medium and 10 ml transferred to each well of the cell plate. Cell plates were incubated overnight for 20 hours, 37° C., 5% CO2. 20 ml of a […] stock (in RPMI) of the proteasome inhibitor, MG132 (Cayman Chemical, Cat#10012628), was added to each well. Cells were incubated for 1 hour at 37° C., 5% CO2. Quantitation of ubiquityl-MDM2 was carried out using Ub/Total MDM2 whole cell lysate kit (MSD, Cat#K15168D-2). […] MSD read buffer was prepared according to manufacturer's instructions and 150 ml added per well. Plates were read using a MSD Sector Reader. […] Percentage increase in ubiquityl-MDM2 was calculated relative to DMSO controls using Genedata Screener software."}, "[2]": {"test_system": "MCF-7, U Os, normal osteoblast, MDA-MB157 and SaOs cell lines", "assay": "CellTiter-Glo viability of tumor, matched normal and p53 null cell lines (FIG. 9)", "method": "2,500-5,000 cells were seeded in 1-well of a 96-well plate (Corning; 3904). The following day, the media was changed from normal (10%) to low serum (0.5%) containing vehicle (DMSO) or compounds. 16-24 h later FBS was added to each well to bring serum levels back to normal (10%). Cells were then allowed to grow for 2 days. All treatments were done in triplicate.\nSeventy two hours after compounds were added, CellTitre Glo (CTG) reagent was added following the protocol provided by the manufacturer (Promega). In the experiment to test compound dependency on USP7, 3× more USP7 null cells were plated per well (7,500 vs. 2,500 for wild-type (WT) cells), given the slower proliferation of USP7 null cells. For the multiple myeloma experiment, cells seeded in low serum and treated with compounds immediately. Twenty four hours later, serum was added back to normal levels. CTG assay was done 24 h later i.e. 48 h after compounds were added instead of 72 hrs later for the adherent cells."}, "[3]": {"test_system": "U2Os p53 WT osteosarcoma cells", "assay": "Incucyte cell proliferation and caspase activity, U2Os (FIG. 11, 16)", "conditions": "U2Os p53 WT compared to SaOs p53 null cells; compared to 89", "method": "2,500-5,000 cells were seeded in 1-well of a 96-well plate (Corning; 3904). The following day, the media was changed from normal (10%) to low serum (0.5%) containing vehicle (DMSO) or compounds. 16-24 h later FBS was added to each well to bring serum levels back to normal (10%). Cells were then allowed to grow for 2 days. All treatments were done in triplicate. The day after cells were seeded, the media was changed to low serum media containing 2 μM CellEvent Caspase 3/7 reagent (Life Technologies; C10423) and compounds. The plates were placed in an IncuCyte (Essen Bioscience, Inc.) live cell imager and scanning was started 15-20 mins after. IncuCyte™ ZOOM facilitates live-cell monitoring via customized imaging protocols. Images were taken every 2 h for at least 3 days, using a 10× objective. Phase contrast was used to measure cell confluency/density while green fluorescence was used to measure caspase activity. The images were analyzed using IncuCyte software (Basic Analysis parameters) and a ratio of caspase activity to cell density was determined."}, "[4]": {"test_system": "p53, p21, MDM2 and E6AP in RKO, RKO-E6, Vibo and SiHA cell lines", "assay": "Western blot in RKO, RKO-E6, Vibo and SiHA cells (FIG. 14A)", "method": "In 24-well plates, 0.10-0.15×10^6 (adherent) or 0.5×10^6 (suspension) cells were treated with 15 μM or 2.5 μM compounds, respectively, for 24 h in low serum prior to lysis for Western Blot analysis."}, "[5]": {"test_system": "MDM2 in MCF7 breast cancer cells", "assay": "MDM2 turnover in MCF7 cells with cycloheximide (FIG. 3A)", "conditions": "15 μM, in the presence of cycloheximide (CHX)", "method": "In 24-well plates, 0.15×10^6 MCF-7 cells were treated for a total of 8 h with DMSO or compounds (15 μM). During that 8 h, cycloheximide (CHX) was added for the indicated times prior to harvest."}}, "data": [{"smiles": "CCc1c(-c2ccc3[nH]ncc3c2)cnc(N)c1-c1ccc(O)cc1", "note": "[Compound 88, 4-[2-amino-4-ethyl-5-(1H-indazol-5-yl)-3-pyridyl]phenol]", "values": [{"measurement": "EC50", "setting": "[1]", "value": 2000, "unit": "nM"}, {"measurement": "cell viability (CellTiter-Glo), wild-type p53 tumor cell lines", "setting": "[2]; MCF-7 and U Os, relative to compound 89", "value": "decreased viability"}, {"measurement": "cell viability (CellTiter-Glo), matched normal and p53 null cell lines", "setting": "[2]; normal osteoblast cell lines, p53 null MDA-MB157 and SaOs", "value": "do not show similar decreases in cell viability"}, {"measurement": "cell viability (Incucyte proliferation and caspase activity)", "setting": "[3]", "value": "decreases cell viability"}, {"measurement": "effect on p53, p21, MDM2 and E6AP (western blot)", "setting": "[4]", "value": "stabilize p53, p21, and destabilize MDM2 and E6AP"}, {"measurement": "destabilizing effect on MDM2 (western blot)", "setting": "[5]", "value": "destabilizing effects"}]}]}
